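1) Cells in 96-well plates. 2) Compound, 48 h, 5 concentrations. 3) Linear interpolation between surrounding doses. 4) Unreached endpoint = highest concentration. Here, GI50 denotes the concentration required for 50% inhibition of growth. TGI: total growth inhibition.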

Among the test systems are M14 melanoma; UACC-62 melanoma; A549 NSCLC; HCT-116 colon; HOP-92 NSCLC; SNB-19 CNS; U251 CNS; ACHN renal.
Common to all, as to assay: DTP human tumour cell line panel, 48 h

For `CC12CCc3ccccc3C1=Nc1ccccc12` (stereo unspecified), the TGI (as a rule, the concentration giving total growth inhibition) with M14 melanoma is greater than 100 µM; with UACC-62 melanoma, greater than 100 µM; in the experiment on A549 NSCLC, greater than 100 µM; in the experiment with HCT-116 colon, greater than 100 µM; in the experiment with HOP-92 NSCLC it was 54 µM; in the experiment on SNB-19 CNS, greater than 100 µM. Moreover, the TGI in the experiment with U251 CNS and in the experiment on ACHN renal was greater than 100 µM in each case.

For the compound `O=C(NCCCNC(=O)OCc1ccc2c(Br)cc(Br)c(O)c2n1)OCc1ccc2c(Br)cc(Br)c(O)c2n1`, the GI50 with M14 melanoma, in the experiment on UACC-62 melanoma, with A549 NSCLC, in the experiment with HCT-116 colon, in the experiment with HOP-92 NSCLC and in the experiment on SNB-19 CNS was greater than 100 µM throughout. The GI50 in the experiment on U251 CNS and in the experiment with ACHN renal was greater than 100 µM in each case. Moreover, the TGI in the experiment on M14 melanoma, in the experiment on UACC-62 melanoma, with A549 NSCLC, in the experiment on HCT-116 colon, with HOP-92 NSCLC and in the experiment with SNB-19 CNS was greater than 100 µM each time. The TGI with U251 CNS and in the experiment with ACHN renal was greater than 100 µM in each case.

Turning to `CCCCCCNC(=O)Oc1ccc(/C(=C(\C)c2ccccc2)c2ccc(OCCN3CCCCC3)cc2)cc1`, the GI50 – broadly, the concentration that inhibits growth by half – was 1.98 µM in the experiment with M14 melanoma; 3.63 µM with UACC-62 melanoma; 4.31 µM in the experiment with A549 NSCLC; 1.49 µM in the experiment with HCT-116 colon; 1.51 µM in the experiment with HOP-92 NSCLC; 4.69 µM in the experiment with SNB-19 CNS. Further, the GI50 is 1.81 µM in the experiment on U251 CNS and 2.85 µM in the experiment with ACHN renal. For the same compound, the TGI came out at 3.97 µM with M14 melanoma; 12.5 µM with UACC-62 melanoma; 18.6 µM with A549 NSCLC; 2.89 µM with HCT-116 colon; 5.04 µM in the experiment with HOP-92 NSCLC; 18.2 µM in the experiment with SNB-19 CNS. For the same compound, the TGI in the experiment with U251 CNS amounted to 3.81 µM; with ACHN renal, 10.9 µM.

As to `CS(=O)c1ccc(-c2nc(-c3ccc(F)cc3)c(-c3ccncc3)[nH]2)cc1` (stereo unspecified), the GI50 in the experiment with M14 melanoma was 11.3 µM; in the experiment with UACC-62 melanoma it was 9.09 µM; with A549 NSCLC, 35 µM; with HCT-116 colon, 20.1 µM; with HOP-92 NSCLC it was 28.8 µM; in the experiment with SNB-19 CNS, greater than 77.3 µM. Further, the results for the GI50 in the experiment with U251 CNS and with ACHN renal were 38 µM and 21.4 µM, respectively. Further, the concentration for total growth inhibition (TGI) was 43.3 µM with M14 melanoma; greater than 66 µM with UACC-62 melanoma; greater than 100 µM with A549 NSCLC; greater than 63.8 µM in the experiment on HCT-116 colon; greater than 100 µM with HOP-92 NSCLC; greater than 100 µM in the experiment with SNB-19 CNS. In addition, the TGI in the experiment with U251 CNS and with ACHN renal was greater than 100 µM in each case.

As to `COc1cc(-c2nn(C(=O)NS(=O)(=O)c3ccc(C)cc3)cc2-c2ccncc2)ccc1Cl`, the GI50 with M14 melanoma was 3.6 µM; in the experiment with UACC-62 melanoma it was 2.28 µM; in the experiment with A549 NSCLC it was 4.43 µM; in the experiment with HCT-116 colon, 5.63 µM; in the experiment on HOP-92 NSCLC, 10.3 µM; with SNB-19 CNS, 4.9 µM. Also, the GI50 in the experiment on U251 CNS was 6.16 µM; with ACHN renal, 3.48 µM. For the same compound, the TGI in the experiment with M14 melanoma stood at 14.2 µM; with UACC-62 melanoma, 10.2 µM; in the experiment with A549 NSCLC it was 35 µM; in the experiment with HCT-116 colon it was 32.2 µM; with HOP-92 NSCLC, 77.8 µM; in the experiment with SNB-19 CNS it was 38.5 µM. Also, the TGI in the experiment with U251 CNS was 28.5 µM; in the experiment on ACHN renal, 36.1 µM.

In the case of `Cc1c2ncccc2nc2[nH]c3ccc(OCCN(C)C)cc3c12`, the GI50 with M14 melanoma is 3.01 µM; in the experiment with UACC-62 melanoma, 14.3 µM; in the experiment with A549 NSCLC, 1.87 µM; with HCT-116 colon, 0.552 µM; in the experiment on HOP-92 NSCLC it was 1.99 µM; with SNB-19 CNS it was 2.8 µM. The GI50 is 2.68 µM in the experiment on U251 CNS and 0.75 µM in the experiment with ACHN renal. For the same compound, the TGI in the experiment on M14 melanoma is 15.6 µM; in the experiment with UACC-62 melanoma, 39.3 µM; in the experiment with A549 NSCLC, 10.3 µM; in the experiment with HCT-116 colon, 12.3 µM; with HOP-92 NSCLC, 9.59 µM; in the experiment with SNB-19 CNS, 26.7 µM. Also, the TGI worked out at 17.3 µM with U251 CNS and 7.95 µM with ACHN renal.

Turning to `COc1cccc(Cn2cc3c(c2)-c2oncc2CC3)c1`, the GI50 in the experiment on M14 melanoma was 0.374 µM; in the experiment on UACC-62 melanoma, 0.662 µM; in the experiment on A549 NSCLC it was 0.559 µM; in the experiment with HCT-116 colon, 0.43 µM; in the experiment with HOP-92 NSCLC, 2.17 µM; in the experiment with SNB-19 CNS it was 0.543 µM. For the same compound, the GI50 in the experiment with U251 CNS is 0.386 µM; in the experiment on ACHN renal, 0.876 µM. Besides, the TGI in the experiment with M14 melanoma was greater than 48.2 µM; with UACC-62 melanoma, greater than 88.8 µM; with A549 NSCLC, greater than 56.1 µM; with HCT-116 colon, 29.4 µM; in the experiment on HOP-92 NSCLC, 68.3 µM; in the experiment on SNB-19 CNS, greater than 100 µM. In addition, the total growth inhibition concentration (TGI) is 35.8 µM in the experiment on U251 CNS and greater than 100 µM with ACHN renal.

`CCOC(=O)c1c(C)n(CC(C)C)c2c1cc1oc(=O)c(=O)n3cnc2c13`: the GI50 was 16.9 µM in the experiment with M14 melanoma; 9.44 µM in the experiment on UACC-62 melanoma; 15.7 µM with A549 NSCLC; 14.8 µM in the experiment on HCT-116 colon; 14.5 µM in the experiment on HOP-92 NSCLC; 36.2 µM with SNB-19 CNS. The figures for the GI50 in the experiment on U251 CNS and in the experiment with ACHN renal were 10 µM and 9.34 µM, respectively. Moreover, the TGI with M14 melanoma was greater than 50 µM; with UACC-62 melanoma, 21.6 µM; in the experiment on A549 NSCLC it was greater than 50 µM; with HCT-116 colon, greater than 50 µM; in the experiment with HOP-92 NSCLC, 43.4 µM; in the experiment on SNB-19 CNS it was greater than 50 µM. In addition, the TGI in the experiment on U251 CNS and in the experiment on ACHN renal was 24.1 µM throughout.

Consider `CC(F)(F)c1cc(F)ccc1-c1sc2cc(O)ccc2c1Oc1ccc(/C=C/C(=O)O)cc1`, for which the GI50 with M14 melanoma is 4.96 µM; in the experiment on UACC-62 melanoma, 6.06 µM; in the experiment on A549 NSCLC, 10.3 µM; with HCT-116 colon, 8.48 µM; in the experiment with HOP-92 NSCLC, 11.1 µM; in the experiment with SNB-19 CNS, 7.28 µM. For the same compound, the results for the GI50 in the experiment with U251 CNS and in the experiment with ACHN renal were 6.45 µM and 10.3 µM, respectively. In addition, the TGI turned out to be 25 µM in the experiment with M14 melanoma; 22.9 µM in the experiment on UACC-62 melanoma; 29.9 µM in the experiment with A549 NSCLC; 22.1 µM in the experiment with HCT-116 colon; 27.3 µM in the experiment with HOP-92 NSCLC; 20.2 µM in the experiment with SNB-19 CNS. The TGI in the experiment on U251 CNS came out at 23 µM; in the experiment with ACHN renal, 45.5 µM.
